Test [1] deals with Human eutopic endometrium tissue biopsies. Description: Ex vivo assay 1: GPR84 ligand associated endometrial inflammation assay (cytokines in supernatant, Bio-Plex). The conditions noted are these: for IL-1beta in supernatant / TNFalpha in supernatant: endometrium slices, 21 hours. In kind it is cell-based. Here is the method:
Human eutopic endometrium tissue biopsies as surrogate for endometriosis lesion were cut into small slices, washed with HBSS buffer [ThermoFischer, 14175095] and incubated in DMEM/F12 medium [ThermoFischer, 11320-033], supplemented with 5% FCS for 3 hours. […] After 21 hours cytokines in the supernatant were quantified with the Bio-Plex platform according to the supplier's instructions. Data were analyzed using the GraphPad Software (La Jolla, USA). […] These mediators included IL1β and TNFalpha. […] Thus, activation of GPR84 contributes to the inflammation associated with endometriosis and antagonists are able to reduce inflammation

The subject of another test is PBMCs. Description: In vitro assay 2: GPR84 ligand associated IL-1beta and TNFalpha release from PBMCs (ELISA). In kind it is cell-based. As to conditions: for IL-1beta concentration / TNF alpha concentration: PBMCs stimulated with LPS 100 ng/ml 24 hours, treatment 4 h. As to the method:
PBMCs were isolated by Ficoll-Paque Plus (Biochrom) density gradient centrifugation from whole blood. Briefly, PBMCs were centrifuged at 250 g for 30 sec and resuspended and cultured in RPMI 1640 medium [Gibco, CAT No. 11875093] with 10% heat-inactivated FBS, L-Glutamine (10 g/L), penicillin (100 IU/mL), and streptomycin ([…]) at 37° C. in a 5% CO2 environment. Cells were stimulated with LPS (100 ng/ml, Sigma-Aldrich) for 24 hours and treated with the GPR84 agonist 6-n-octylaminouracil and antagonist CMPD 139 for 4 h. IL-1beta and TNFalpha concentrations were analyzed by ELISA (Mesoscale Discovery, Germany).
For orientation: In an ELISA, binding on a coated surface is turned into a signal by an enzyme label.

The target in test [2] is T1, GPR84 (Homo sapiens, UniProt Q9NQS5).
T1 construct: host or cells: CHO-K1 (cAMP Hunter CHO-K1 GPR84 Gi cells)
T1 sequence (Q9NQS5 whole entry): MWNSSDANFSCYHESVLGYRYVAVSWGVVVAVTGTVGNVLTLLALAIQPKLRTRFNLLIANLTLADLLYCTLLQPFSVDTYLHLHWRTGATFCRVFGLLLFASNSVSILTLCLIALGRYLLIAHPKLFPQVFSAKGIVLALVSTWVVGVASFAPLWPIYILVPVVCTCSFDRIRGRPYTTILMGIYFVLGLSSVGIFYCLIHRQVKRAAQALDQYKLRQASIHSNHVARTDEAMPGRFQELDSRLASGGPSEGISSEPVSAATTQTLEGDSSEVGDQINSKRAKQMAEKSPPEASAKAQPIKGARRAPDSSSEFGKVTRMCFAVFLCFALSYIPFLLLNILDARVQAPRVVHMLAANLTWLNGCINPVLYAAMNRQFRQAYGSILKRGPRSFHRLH
Description: GPR84 cAMP release assay, test for antagonism of agonist-induced activation (cAMP Hunter CHO-K1 GPR84 Gi cells, TR-FRET). It is filed as cell-based. Here is the method:
For the resuscitation of frozen cells (cAMP Hunter™ CHO-K1 GPR84 Gi cells; DiscoverX; #95-0158C2) one vial is taken out of the liquid nitrogen storage and rapidly thawed in a water bath at 37° C. for some 1 to 3 minutes. Immediately afterwards the cells are transferred carefully by decanting into a 50 ml Falcon Tube containing 15 ml of pre-warmed full cell culture medium (HAM's F12; 10% FCS; no selection markers). Gentle swirling is used to assist their resuspension. In a next step, the cells are harvested straight away via low g centrifugation for 5 minutes (Hereaus Multifuge 4 KR; 400 rpm; rcf=44 g) to avoid over-compacting the cell pellet. Gentle decanting is used to get rid of the medium. Finally assay readiness is achieved by carefully re-suspending the cell pellet in 5 ml of the final assay medium (HAM's F12; 10% FCS; no selection markers). In a last step, cell viability and the actual cell number is determined (Omni Life Science; Casy Cell Counter/Analyzer) prior to correcting the volume for the final cell number to be seeded, i.e. 2500 cells/μl. Cell seeding is achieved either with the help of multi-channel pipettes or appropriate bulk reagent dispensers.
In a first step, 1 μl of a 4× antagonist solution in the predefined test range (prepared in assay medium; HAM's F12; 10% FCS; 2 mM Glutamin; no selection markers) is added into the wells of a non-sterile 384-well plate (Greiner; white; #784075; Immediately afterwards 2 μl's of assay ready frozen cells are directly seeded into the plate (5000 cells/well)). […] Time resolved FRET (TR-FRET) signals are determined 60 minutes later using an appropriate HTRF reader (BMG Labtech: Pherastar).
Dose response experiments for GPR84 agonists were carried out using the cAMP Hunter™ CHO-K1 GPR84 Gi cell system (DiscoverX) (PathHunter® CHO-K1 hGPR84 β-Arrestin Cell Line cultured with DMF12 HAM, 9% FBS; 300 ug/ml Hygromycin; 800 ug/ml Geneticin; 2 mM Glut; 1% Pen/Strep) in a 384-well plate format. […] Following a 60-minute incubation cAMP levels were determined by TR-FRET as described above. […]
For orientation: Time-resolved FRET reads energy transfer from a long-lived donor to a nearby acceptor.

The subject of test [3] is mouse CFA model of inflammation. Description: CFA pain model, dynamic weight-bearing (DWB). It is filed as in vivo. The conditions noted are these: preventive, 24 h after CFA, vehicle 42.91 +/− 19.32. Here is the method:
The efficacy of CMPD139 in vivo on inflammatory pain was measured in inflamed paws after administration of complete Freunds' adjuvans (CFA) (24 h) in the dynamic weight-bearing (DWB) model. The effects of repeated preventive treatment with CMPD139 on pain following repeated oral and subcutaneous administration (3×) in the mouse CFA model of inflammation were investigated using a preventive setting. The GPR84 antagonist CMPD139 (90 or 30 mg/kg, p.o.+s.c., 3× doses) was administered 2 h before injection of CFA and 6-8 h later at day 0. At 24 h after CFA application, the third dose of CMPD139 was given 2 h before DWB testing. Statistical analysis was performed with one-way analysis of variance, followed by Bonferroni's multiple comparison test against vehicle control groups using the GraphPad PRISM software, *p<0.05.

Test [4] addresses T1, GPR84. Kind of test: GPR84 cAMP release assay, test for agonism (cAMP Hunter CHO-K1 GPR84 Gi cells, TR-FRET). It is filed as cell-based. As to conditions: 60 min incubation.
Description: For the resuscitation of frozen cells (cAMP Hunter™ CHO-K1 GPR84 Gi cells; DiscoverX; #95-0158C2) one vial is taken out of the liquid nitrogen storage and rapidly thawed in a water bath at 37° C. for some 1 to 3 minutes. Immediately afterwards the cells are transferred carefully by decanting into a 50 ml Falcon Tube containing 15 ml of pre-warmed full cell culture medium (HAM's F12; 10% FCS; no selection markers). Gentle swirling is used to assist their resuspension. In a next step, the cells are harvested straight away via low g centrifugation for 5 minutes (Hereaus Multifuge 4 KR; 400 rpm; rcf=44 g) to avoid over-compacting the cell pellet. Gentle decanting is used to get rid of the medium. Finally assay readiness is achieved by carefully re-suspending the cell pellet in 5 ml of the final assay medium (HAM's F12; 10% FCS; no selection markers). In a last step, cell viability and the actual cell number is determined (Omni Life Science; Casy Cell Counter/Analyzer) prior to correcting the volume for the final cell number to be seeded, i.e. 2500 cells/μl. […]
2 μl's of assay ready frozen cells are directly seeded into the wells of a non-sterile 384-well plate (Greiner; white; #784075; 5000 cells/well). […] Time resolved FRET (TR-FRET) signals are determined 60 minutes later using an appropriate HTRF reader (BMG Labtech: Pherastar). […]
Setting [5] is: 6-n-octylaminouracil (10 μM) + CMPD 139 (10 μM).
Setting [6] is: Decanoic Acid (10 μM) + CMPD. 139 (10 μM).
Where [7] appears, read: 6-n-octylaminouracil (10 μM) alone.

4 compounds from US20210401823A1, “INHIBITORS AND ANTAGONISTS OF GPR84 FOR THE TREATMENT OF ENDOMETRIOSIS” (Bayer Pharma Aktiengesellschaft, priority 2017, published 2021) can be followed below.

Molecules are shown by their SMILES.

In test [1] (Decanoic Acid (10 μM) alone), `CCCCCCCCCC(=O)O` [Decanoic acid, reference compound] showed an IL-1beta in supernatant of 1.413 pg/mL and a TNFalpha in supernatant of 1.953 pg/mL.
By IC50 is commonly meant the point on the concentration scale where inhibition reaches its midpoint. High values mean weaker potency in that assay, low ones greater potency in that assay. Turning to `Cc1ccc(-c2ccc3c(c2)CCn2c-3cc(OCC3COc4ncccc4O3)nc2=O)cn1` (stereo not shown) [CMPD 139], in the test on PBMCs (setting [5]), the IL-1beta concentration is 1933.011 pg/mL. For the same compound, in the test with PBMCs (setting [5]), the TNF alpha concentration came to 479.6307 pg/mL. For the same compound, the “Effect on GPR84 elevated IL-1beta and TNFalpha levels” value with PBMCs (LPS-stimulated PBMCs, with 6-n-octylaminouracil) was “reduced GPR84 elevated IL-1beta and TNFalpha levels”. The results for the concentration for half-maximal inhibition (IC50) on GPR84 [2] (with 6-n-octylaminouracil 1.34 × 10^−7 M), on GPR84 [2] (with 40 × 10^−6 M 2-OH decanoic acid) and on GPR84 [2] (with embelin 6.00 10^−6 M) were 20 nM, 16 nM and 9.4 nM, respectively. For the same compound, the “Weight distribution (% Ipsi/contra) 2 h post last dose mean +/− SD” value is on record as 55.82 +/− 17.38 % Ipsi/contra in test [3] (3x 30 + 30 mg/kg p.o./s.c.) and 60.37 +/− 15.45* % Ipsi/contra in test [3] (3x 90 + 90 mg/kg p.o./s.c., *p<0.05 vs vehicle). The “Effect on cytokine and growth factor levels compared to agonist alone” value in test [1] (CMPD 139 at 10^−5 M combined with decanoic acid) was “reduced all measured cytokine and growth factors”. Further, in test [1] (setting [6]), the IL-1beta in supernatant came out at 0.9600 pg/mL. Also, the TNFalpha in supernatant in test [1] (setting [6]) turned out to be 1.270 pg/mL.
In the test with PBMCs (setting [7]), `CCCCCCCCNc1cc(=O)[nH]c(=O)[nH]1` [6-n-octylaminouracil, reference compound] displayed an IL-1beta concentration of 3427.673 pg/mL and a TNF alpha concentration of 955.6923 pg/mL.
By EC50 is commonly meant the concentration needed to bring the measured effect to its halfway point. On GPR84 [4], `CCCCCCCCC(O)C(=O)O` (stereo not shown) [2-OH-decanoic acid, 2-Hydroxydecanoic acid] gave an EC50 of 24 µM.
